Test results published in publication PMC8041284, “Tunable Methacrylamides for Covalent Ligand Directed Release Chemistry” (Journal of the American Chemical Society, 2021).

target: BTK (Homo sapiens, UniProt Q06187); assay: biochemical; conditions: read-out: BTK inhibition (%)
Sequence (Q06187 402-655 limits assumed): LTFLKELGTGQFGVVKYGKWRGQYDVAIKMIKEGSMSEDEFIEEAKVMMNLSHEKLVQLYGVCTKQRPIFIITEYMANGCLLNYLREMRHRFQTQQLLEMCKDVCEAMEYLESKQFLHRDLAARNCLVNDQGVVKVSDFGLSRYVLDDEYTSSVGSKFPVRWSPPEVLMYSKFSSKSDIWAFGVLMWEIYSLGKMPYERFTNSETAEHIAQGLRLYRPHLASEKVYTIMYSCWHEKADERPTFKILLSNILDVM

| SMILES | inhibition at 10 µM |
| --- | --- |
| Cc1cccc(C)c1NC1=NCCCS1 [PCM-0064906] | -21.8% |
| C[C@]12N[C@H](Cc3ccccc31)c1ccccc12 [PCM-0064989] | 3.9% |

same assay, conditions: read-out: BTK inhibition (%), 0.75 uM BTK, […] probe 3l, 15 min preincubation

| SMILES | inhibition at 10 µM |
| --- | --- |
| CC/C(=C(\c1ccccc1)c1ccc(OCCN(C)C)cc1)c1ccccc1 [PCM-0064738] | 7.6% |
| CC(C)(C)NCC(O)c1cc(O)cc(O)c1 (stereo not drawn) [PCM-0064743] | -26.4% |
| COc1cc2nc(N3CCCN(C)CC3)nc(NC3CCN(Cc4ccccc4)CC3)c2cc1OC [PCM-0064746] | -0.7% |
| COCCOC(=O)C1=C(C)NC(C)=C(C(=O)OC(C)C)C1c1cccc([N+](=O)[O-])c1 (stereo not drawn) [PCM-0064753] | 5.4% |
| CNCCCC12CCC(c3ccccc31)c1ccccc12 [PCM-0064754] | 11.7% |
| CC(C)(C)C(=O)Oc1ccc(S(=O)(=O)Nc2ccccc2C(=O)NCC(=O)O)cc1 [PCM-0064760] | 11.7% |
| CC(=O)[C@H]1CC[C@H]2[C@@H]3CCC4=CC(=O)CC[C@]4(C)[C@H]3CC[C@]12C [PCM-0064761] | -7.8% |
| CC(C)NCC(O)COc1cccc2ccccc12 (stereo not drawn) [PCM-0064763] | -12.5% |
| COC(=O)C1=C(C)NC(C)=C(C(=O)OC)C1c1ccccc1[N+](=O)[O-] [PCM-0064767] | 14% |
| CN1C(C(=O)Nc2ccccn2)=C(O)c2ccccc2S1(=O)=O [PCM-0064770] | 9% |
| CCCCNc1ccc(C(=O)OCCN(C)C)cc1 [PCM-0064772] | 10.9% |
| CCN1CCCC1CNC(=O)c1cc(S(=O)(=O)CC)c(N)cc1OC (stereo not drawn) [PCM-0064775] | 0.8% |
| NCCS(=O)(=O)O [PCM-0064776] | -6% |
| c1ccc2c(c1)CCCC2C1=NCCN1 (stereo not drawn) [PCM-0064782] | -11% |
| N#CC(=C(/N)Sc1ccccc1N)/C(C#N)=C(\N)Sc1ccccc1N [PCM-0064783] | -4.1% |
| O=C(NCCN1CCOCC1)c1ccc(Cl)cc1 [PCM-0064796] | -3.9% |
| Cc1ccc(=O)n(-c2ccccc2)c1 [PCM-0064803] | 20.7% |
| O=C(C1CCCCC1)N1CC(=O)N2CCc3ccccc3C2C1 (stereo not drawn) [PCM-0064807] | -5.4% |
| O=C1CCC(N2C(=O)c3ccccc3C2=O)C(=O)N1 (stereo not drawn) [PCM-0064817] | 5.5% |
| Cc1cc2c(s1)Nc1ccccc1N=C2N1CCN(C)CC1 [PCM-0064824] | -8.6% |
| COc1ccccc1N1CCN(CCN(C(=O)C2CCCCC2)c2ccccn2)CC1 [PCM-0064827] | -6.2% |
| CC[C@@H](C(N)=O)N1CCCC1=O [PCM-0064838] | 15.6% |

| SMILES | inhibition at 10 µM |
| --- | --- |
| CCCNCC(O)COc1ccccc1C(=O)CCc1ccccc1 (stereo not drawn) [PCM-0064846] | 2.3% |
| CNC[C@H](O)c1cccc(O)c1 [PCM-0064848] | -20.2% |
| CN1CCN(CCCN2c3ccccc3Sc3ccc(C(F)(F)F)cc32)CC1 [PCM-0064852] | -4.7% |
| CCCCNC(=O)NS(=O)(=O)c1ccc(C)cc1 [PCM-0064855] | -11.7% |
| O=c1n(CCCN2CCN(c3cccc(Cl)c3)CC2)nc2ccccn12 [PCM-0064865] | -0.9% |
| N#CC(C#N)=Cc1ccc(O)c(O)c1 [PCM-0064867] | 54.5% |
| CC(C)N(CCC(=O)c1ccc2ccccc2c1)Cc1ccccc1 [PCM-0064875] | 29% |
| O=C(O)c1cccnc1Nc1cccc(C(F)(F)F)c1 [PCM-0064877] | 24.1% |
| N=C(N)c1ccc(OCCCCCOc2ccc(C(=N)N)cc2)cc1 [PCM-0064878] | -4.7% |
| O=C(Nc1ccncc1)c1cc([N+](=O)[O-])ccc1Cl [PCM-0064887] | 10.9% |
| C=CCc1cccc(/C=N/NC(=O)CN2CCN(Cc3ccccc3)CC2)c1O [PCM-0064890] | 9% |
| CCN(CC)C(=S)SSC(=S)N(CC)CC [PCM-0064895] | -5.5% |
| NCC(O)c1ccc(O)cc1 (stereo not drawn) [PCM-0064912] | 2.3% |
| Cn1cc(C2=C(c3ccc(Cl)cc3Cl)C(=O)NC2=O)c2ccccc21 [PCM-0064915] | 3.4% |
| CS(=O)(=O)Nc1ccc([N+](=O)[O-])cc1Oc1ccccc1 [PCM-0064916] | 3.4% |
| CN1[C@@H]2CCC[C@H]1CC(NC(=O)c1nn(C)c3ccccc13)C2 (stereo partly drawn) [PCM-0064932] | 10.2% |
| CC(C)(C)c1cc(C=C(C#N)C#N)cc(C(C)(C)C)c1O [PCM-0064935] | 15.2% |
| CCOC(=O)C1=C[C@]2(CC)CCCN3CCc4c(n1c1ccccc41)[C@@H]32 [PCM-0064941] | -14.5% |
| C[C@]12C=CC(=O)C=C1CC[C@H]1[C@@H]3C[C@@H](O)[C@](O)(C(=O)CO)[C@@]3(C)C[C@H](O)[C@@]12F [PCM-0064944] | 2.1% |
| CC12CC3CC(C)(C1)CC(N)(C3)C2 [PCM-0064948] | 7.8% |
| CS(=O)(=O)c1cccc(CNc2nc(Nc3ccc4c(c3)CCC(=O)N4)ncc2C(F)(F)F)c1 [PCM-0064954] | 55.2% |
| NC(=O)CN1CCCC1=O [PCM-0064964] | -16.3% |

| SMILES | inhibition at 10 µM |
| --- | --- |
| CN[C@H]1CC[C@@H](c2ccc(Cl)c(Cl)c2)c2ccccc21 [PCM-0064965] | -19.5% |
| COc1ccccc1N1CCN(CCCNc2cc(=O)n(C)c(=O)n2C)CC1 [PCM-0064976] | -0.8% |
| CN[C@H](CC(C)C)C(=O)N[C@H]1C(=O)N[C@@H](CC(N)=O)C(=O)N[C@H]2C(=O)N[C@H]3C(=O)N[C@H](C(=O)N[C@H](C(=O)O)c4cc(O)cc(O)c4-c4cc3ccc4O)[C@H](O)c3ccc(c(Cl)c3)Oc3cc2cc(c3O[C@@H]2O[C@H](CO)[C@@H](O)[C@H](O)[C@H]2O[C@H]2C[C@](C)(N)[C@H](O)[C@H](C)O2)Oc2ccc(cc2Cl)[C@H]1O [PCM-0064980] | 4.3% |
| CC(C)(C)NC[C@H](O)COc1nsnc1N1CCOCC1 [PCM-0064983] | -3.9% |
| Cc1cc(C(C)(C)C)cc(C)c1CC1=NCCN1 [PCM-0064984] | -0.8% |
| CC(C)NCC(O)COc1ccc(COCCOC(C)C)cc1 (stereo not drawn) [PCM-0064988] | -31.9% |
| O=C(c1ccc(F)cc1)C1CCN(CCn2c(=O)[nH]c3ccccc3c2=O)CC1 [PCM-0065006] | 0% |
| COc1cc(Cc2cnc(N)nc2N)cc(OC)c1OC [PCM-0065007] | -7.8% |
| Oc1ccc2ccccc2c1SSc1c(O)ccc2ccccc12 [PCM-0065009] | 17.2% |
| COc1ccc(/C=C/C(=O)Nc2ccccc2C(=O)O)cc1OC [PCM-0065010] | 13.8% |
| Nc1nc(N)c2nc(-c3ccccc3)c(N)nc2n1 [PCM-0065015] | -4.7% |
| CCc1cncnc1N1CCN(Cc2nc3ccc(C(F)(F)F)cc3[nH]2)CC1 [PCM-0065022] | -22.8% |
| CC(C)N(CCC(C(N)=O)(c1ccccc1)c1ccccn1)C(C)C (stereo not drawn) [PCM-0065027] | 5.4% |
| CCN(CC)CCOCCOC(=O)C1(c2ccccc2)CCCC1 [PCM-0065027] | 4.7% |
| Cc1ccc(-c2cc(C(F)(F)F)nn2-c2ccc(S(N)(=O)=O)cc2)cc1 [PCM-0065035] | 22.8% |
| COc1ccc([C@@H]2Sc3ccccc3N(CCN(C)C)C(=O)[C@@H]2OC(C)=O)cc1 [PCM-0065036] | 17.1% |
| O=c1ccc2ccc(O)c(O)c2o1 [PCM-0065041] | 15.9% |
| Cc1nc2n(c(=O)c1CCN1CCC(c3noc4cc(F)ccc34)CC1)CCCC2O (stereo not drawn) [PCM-0065046] | 6% |
| CC(C)OC(=O)C(C)(C)Oc1ccc(C(=O)c2ccc(Cl)cc2)cc1 [PCM-0065053] | 8.6% |
| CC(C)(C(=O)O)c1ccc(C(O)CCCN2CCC(C(O)(c3ccccc3)c3ccccc3)CC2)cc1 (stereo not drawn) [PCM-0065056] | -10.3% |
| O=c1c(-c2ccc(O)cc2)coc2cc(O)ccc12 [PCM-0065064] | -7.8% |
| Cc1cn([C@H]2C=C[C@@H](CO)O2)c(=O)[nH]c1=O [PCM-0065071] | 2.3% |

| SMILES | inhibition at 10 µM |
| --- | --- |
| O=C(c1ccc(OCCCc2cnc[nH]2)cc1)C1CC1 [PCM-0065087] | -14.5% |
| COCCCC/C(=N\OCCN)c1ccc(C(F)(F)F)cc1 [PCM-0065088] | -8.6% |
| COCCOC(=O)C1=C(C)NC(C)=C(C(=O)OC/C=C/c2ccccc2)C1c1cccc([N+](=O)[O-])c1 (stereo not drawn) [PCM-0065102] | 59.9% |
| COc1ccccc1OCCNCC(O)COc1cccc2[nH]c3ccccc3c12 (stereo not drawn) [PCM-0065111] | -7.8% |
| O=c1[nH]c2ccccc2n1CCCN1CCC(n2c(=O)[nH]c3cc(Cl)ccc32)CC1 [PCM-0065112] | 5.4% |
| CNC[C@H](O)c1ccc(O)c(O)c1 [PCM-0065121] | -9.3% |
| O=C(CCCN1CCC(O)(c2ccc(Cl)cc2)CC1)c1ccc(F)cc1 [PCM-0065124] | -12.5% |
| CCOC(=O)c1ncn2c1CN(C)C(=O)c1cc(F)ccc1-2 [PCM-0065129] | 3.1% |
| NCCc1ccc(O)c(O)c1 [PCM-0065130] | -2.3% |
| CCOC(=O)C1=C(C)NC(C)=C(C(=O)OC)C1c1cccc(Cl)c1Cl (stereo not drawn) [PCM-0065133] | 17.9% |
| CN(CCOc1ccc(NS(C)(=O)=O)cc1)CCc1ccc(NS(C)(=O)=O)cc1 [PCM-0065138] | -7% |
| Nc1ccn([C@H]2CC[C@@H](CO)O2)c(=O)n1 [PCM-0065156] | -22.6% |
| NNc1nncc2ccccc12 [PCM-0065163] | -0.9% |
| COC(=O)C1=CO[C@@H](O)[C@@H]2C(CO)=CC[C@H]12 [PCM-0065168] | -1.6% |
| NC(=O)NO [PCM-0065169] | 10.9% |
| O=c1c(-c2ccc(O)cc2)coc2cc(O)cc(O)c12 [PCM-0065176] | 16.6% |
| O=C(O)COCCN1CCN(C(c2ccccc2)c2ccc(Cl)cc2)CC1 (stereo not drawn) [PCM-0065180] | 15.2% |
| Cc1cccc(C)c1NC(=O)CN1CCCC1=O [PCM-0065191] | -8.6% |
| NC(N)=N/N=C/c1c(Cl)cccc1Cl [PCM-0065199] | -2.3% |
| NC(=O)OCC(COC(N)=O)c1ccccc1 [PCM-0065204] | 3.1% |
| Fc1ccc(C(c2ccc(F)cc2)N2CCN(C/C=C/c3ccccc3)CC2)cc1 [PCM-0065210] | 87.2% |
| Cc1ccccc1N1C(=O)c2cc(S(N)(=O)=O)c(Cl)cc2NC1C (stereo not drawn) [PCM-0065217] | -4.7% |
